How the values were obtained:
[1] = Drug uptake in anesthetized cynomolgus monkey brain occipital lobe after 55 mins postinjection; assay type: ADME, organism-based, Macaca fascicularis; conditions: in vivo
Midbrain [2] = assay: Drug uptake in anesthetized cynomolgus monkey brain midbrain after 65 mins postinjection; assay type: ADME, organism-based, Macaca fascicularis; set-up: unit not given here; conditions: in vivo
Thalamus [3] = assay: Drug uptake in anesthetized cynomolgus monkey brain thalamus after 105 mins postinjection; assay type: ADME, organism-based, Macaca fascicularis; set-up: unit not given here; conditions: in vivo, 1.75 h
Medulla [4] = assay: Drug uptake in anesthetized cynomolgus monkey brain medulla after 225 mins postinjection; assay type: ADME, organism-based, Macaca fascicularis; conditions: in vivo, 3.75 h
Pons [5] = assay: Drug uptake in anesthetized cynomolgus monkey brain pons after 65 mins postinjection; assay type: ADME, organism-based, Macaca fascicularis; conditions: in vivo
Medulla [6] = assay: Drug uptake in anesthetized cynomolgus monkey brain medulla after 2.5 mins postinjection; assay type: ADME, organism-based, Macaca fascicularis; conditions: in vivo
[7] = Ratio of drug uptake in medulla to cerebellum in anesthetized cynomolgus monkey after 18.5 mins postinjection; assay type: ADME, organism-based, Macaca fascicularis; conditions: in vivo
[8] = Drug uptake in anesthetized cynomolgus monkey brain occipital lobe after 215 mins postinjection; assay type: ADME, organism-based, Macaca fascicularis; conditions: in vivo
Caudate [9] = assay: Drug uptake in anesthetized cynomolgus monkey brain caudate after 95 mins postinjection; assay type: ADME, organism-based, Macaca fascicularis, Caudate nucleus; conditions: in vivo
Caudate [10] = assay: Drug uptake in anesthetized cynomolgus monkey brain caudate after 75 mins postinjection; assay type: ADME, organism-based, Macaca fascicularis, Caudate nucleus; conditions: in vivo, 1.25 h
[11] = Ratio of drug uptake in frontal lobe to cerebellum in anesthetized cynomolgus monkey after 135 mins postinjection; assay type: ADME, organism-based, Macaca fascicularis; conditions: in vivo, 2.25 h
[12] = Drug uptake in anesthetized cynomolgus monkey brain frontal lobe after 12.5 mins postinjection; assay type: ADME, organism-based, Macaca fascicularis; conditions: in vivo
Putamen [13] = assay: Drug uptake in anesthetized cynomolgus monkey brain putamen after 65 mins postinjection; assay type: ADME, organism-based, Macaca fascicularis; set-up: unit not given here; conditions: in vivo
Caudate [14] = assay: Drug uptake in anesthetized cynomolgus monkey brain caudate after 45 mins postinjection; assay type: ADME, organism-based, Macaca fascicularis, Caudate nucleus; conditions: in vivo, 0.75 h
[15] = Ratio of drug uptake in occipital lobe to cerebellum in anesthetized cynomolgus monkey after 12.5 mins postinjection; assay type: ADME, organism-based, Macaca fascicularis; conditions: in vivo
[16] = Ratio of drug uptake in putamen to cerebellum in anesthetized cynomolgus monkey after 75 mins postinjection; assay type: ADME, organism-based, Macaca fascicularis; conditions: in vivo, 1.25 h
[17] = Ratio of drug uptake in caudate to cerebellum in anesthetized cynomolgus monkey after 65 mins postinjection; assay type: ADME, organism-based, Macaca fascicularis; conditions: in vivo
Caudate [18] = assay: Drug uptake in anesthetized cynomolgus monkey brain caudate after 18.5 mins postinjection; assay type: ADME, organism-based, Macaca fascicularis, Caudate nucleus; conditions: in vivo
Thalamus [19] = assay: Drug uptake in anesthetized cynomolgus monkey brain thalamus after 9.5 mins postinjection; assay type: ADME, organism-based, Macaca fascicularis; set-up: unit not given here; conditions: in vivo
[20] = Drug uptake in anesthetized cynomolgus monkey brain frontal lobe after 75 mins postinjection; assay type: ADME, organism-based, Macaca fascicularis; conditions: in vivo, 1.25 h
Putamen [21] = assay: Drug uptake in anesthetized cynomolgus monkey brain putamen after 27.5 mins postinjection; assay type: ADME, organism-based, Macaca fascicularis; set-up: unit not given here; conditions: in vivo
Caudate [22] = assay: Drug uptake in anesthetized cynomolgus monkey brain caudate after 12.5 mins postinjection; assay type: ADME, organism-based, Macaca fascicularis, Caudate nucleus; conditions: in vivo
[23] = Drug uptake in anesthetized cynomolgus monkey brain frontal lobe after 95 mins postinjection; assay type: ADME, organism-based, Macaca fascicularis; conditions: in vivo
[24] = Drug uptake in anesthetized cynomolgus monkey brain cerebellum after 135 mins postinjection; assay type: ADME, organism-based, Macaca fascicularis; conditions: in vivo, 2.25 h
[25] = Drug uptake in anesthetized cynomolgus monkey brain occipital lobe after 225 mins postinjection; assay type: ADME, organism-based, Macaca fascicularis; conditions: in vivo, 3.75 h
Caudate [26] = assay: Drug uptake in anesthetized cynomolgus monkey brain caudate after 55 mins postinjection; assay type: ADME, organism-based, Macaca fascicularis, Caudate nucleus; conditions: in vivo
Thalamus [27] = assay: Drug uptake in anesthetized cynomolgus monkey brain thalamus after 22.5 mins postinjection; assay type: ADME, organism-based, Macaca fascicularis; set-up: unit not given here; conditions: in vivo, 0.375 h
[28] = Drug uptake in anesthetized cynomolgus monkey brain cerebellum after 6.5 mins postinjection; assay type: ADME, organism-based, Macaca fascicularis; conditions: in vivo
[29] = Drug uptake in anesthetized cynomolgus monkey brain cerebellum after 215 mins postinjection; assay type: ADME, organism-based, Macaca fascicularis; conditions: in vivo
[30] = Ratio of drug uptake in pons to cerebellum in anesthetized cynomolgus monkey after 1.5 mins postinjection; assay type: ADME, organism-based, Macaca fascicularis; conditions: in vivo, 0.025 h
Medulla [31] = assay: Drug uptake in anesthetized cynomolgus monkey brain medulla after 95 mins postinjection; assay type: ADME, organism-based, Macaca fascicularis; conditions: in vivo
Caudate [32] = assay: Drug uptake in anesthetized cynomolgus monkey brain caudate after 22.5 mins postinjection; assay type: ADME, organism-based, Macaca fascicularis, Caudate nucleus; conditions: in vivo, 0.375 h
Pons [33] = assay: Drug uptake in anesthetized cynomolgus monkey brain pons after 85 mins postinjection; assay type: ADME, organism-based, Macaca fascicularis; conditions: in vivo
[34] = Drug uptake in anesthetized cynomolgus monkey brain frontal lobe after 0.5 mins postinjection; assay type: ADME, organism-based, Macaca fascicularis; conditions: in vivo
[35] = Ratio of drug uptake in midbrain to cerebellum in anesthetized cynomolgus monkey after 95 mins postinjection; assay type: ADME, organism-based, Macaca fascicularis; conditions: in vivo
[36] = Ratio of drug uptake in caudate to cerebellum in anesthetized cynomolgus monkey after 9.5 mins postinjection; assay type: ADME, organism-based, Macaca fascicularis; conditions: in vivo
Midbrain [37] = assay: Drug uptake in anesthetized cynomolgus monkey brain midbrain after 175 mins postinjection; assay type: ADME, organism-based, Macaca fascicularis; conditions: in vivo
[38] = Ratio of drug uptake in caudate to cerebellum in anesthetized cynomolgus monkey after 95 mins postinjection; assay type: ADME, organism-based, Macaca fascicularis; conditions: in vivo
Caudate [39] = assay: Drug uptake in anesthetized cynomolgus monkey brain caudate after 125 mins postinjection; assay type: ADME, organism-based, Macaca fascicularis, Caudate nucleus; conditions: in vivo
Midbrain [40] = assay: Drug uptake in anesthetized cynomolgus monkey brain midbrain after 27.5 mins postinjection; assay type: ADME, organism-based, Macaca fascicularis; set-up: unit not given here; conditions: in vivo
[41] = Drug uptake in anesthetized cynomolgus monkey brain occipital lobe after 27.5 mins postinjection; assay type: ADME, organism-based, Macaca fascicularis; conditions: in vivo
Caudate [42] = assay: Drug uptake in anesthetized cynomolgus monkey brain caudate after 65 mins postinjection; assay type: ADME, organism-based, Macaca fascicularis, Caudate nucleus; conditions: in vivo
[43] = Ratio of drug uptake in thalamus to cerebellum in anesthetized cynomolgus monkey after 95 mins postinjection; assay type: ADME, organism-based, Macaca fascicularis; conditions: in vivo
[44] = Drug uptake in anesthetized cynomolgus monkey brain cerebellum after 9.5 mins postinjection; assay type: ADME, organism-based, Macaca fascicularis; conditions: in vivo
[45] = Drug uptake in anesthetized cynomolgus monkey brain frontal lobe after 115 mins postinjection; assay type: ADME, organism-based, Macaca fascicularis; conditions: in vivo
[46] = Drug uptake in anesthetized cynomolgus monkey brain occipital lobe after 75 mins postinjection; assay type: ADME, organism-based, Macaca fascicularis; conditions: in vivo, 1.25 h
Pons [47] = assay: Drug uptake in anesthetized cynomolgus monkey brain pons after 95 mins postinjection; assay type: ADME, organism-based, Macaca fascicularis; conditions: in vivo
[48] = Ratio of drug uptake in medulla to cerebellum in anesthetized cynomolgus monkey after 165 mins postinjection; assay type: ADME, organism-based, Macaca fascicularis; conditions: in vivo, 2.75 h
[49] = Ratio of drug uptake in pons to cerebellum in anesthetized cynomolgus monkey after 0.5 mins postinjection; assay type: ADME, organism-based, Macaca fascicularis; conditions: in vivo
Medulla [50] = assay: Drug uptake in anesthetized cynomolgus monkey brain medulla after 165 mins postinjection; assay type: ADME, organism-based, Macaca fascicularis; conditions: in vivo, 2.75 h
[51] = Ratio of drug uptake in occipital lobe to cerebellum in anesthetized cynomolgus monkey after 105 mins postinjection; assay type: ADME, organism-based, Macaca fascicularis; conditions: in vivo, 1.75 h
[52] = Drug uptake in anesthetized cynomolgus monkey brain cerebellum after 165 mins postinjection; assay type: ADME, organism-based, Macaca fascicularis; conditions: in vivo, 2.75 h
[53] = Ratio of drug uptake in midbrain to cerebellum in anesthetized cynomolgus monkey after 135 mins postinjection; assay type: ADME, organism-based, Macaca fascicularis; conditions: in vivo, 2.25 h
Midbrain [54] = assay: Drug uptake in anesthetized cynomolgus monkey brain midbrain after 1.5 mins postinjection; assay type: ADME, organism-based, Macaca fascicularis; set-up: unit not given here; conditions: in vivo, 0.025 h
[55] = Drug uptake in anesthetized cynomolgus monkey brain cerebellum after 45 mins postinjection; assay type: ADME, organism-based, Macaca fascicularis; conditions: in vivo, 0.75 h
[56] = Drug uptake in anesthetized cynomolgus monkey brain cerebellum after 35 mins postinjection; assay type: ADME, organism-based, Macaca fascicularis; conditions: in vivo
Thalamus [57] = assay: Drug uptake in anesthetized cynomolgus monkey brain thalamus after 225 mins postinjection; assay type: ADME, organism-based, Macaca fascicularis; set-up: unit not given here; conditions: in vivo, 3.75 h
Pons [58] = assay: Drug uptake in anesthetized cynomolgus monkey brain pons after 75 mins postinjection; assay type: ADME, organism-based, Macaca fascicularis; conditions: in vivo, 1.25 h
[59] = Drug uptake in anesthetized cynomolgus monkey brain frontal lobe after 105 mins postinjection; assay type: ADME, organism-based, Macaca fascicularis; conditions: in vivo, 1.75 h
Medulla [60] = assay: Drug uptake in anesthetized cynomolgus monkey brain medulla after 12.5 mins postinjection; assay type: ADME, organism-based, Macaca fascicularis; conditions: in vivo
Putamen [61] = assay: Drug uptake in anesthetized cynomolgus monkey brain putamen after 2.5 mins postinjection; assay type: ADME, organism-based, Macaca fascicularis; conditions: in vivo
Medulla [62] = assay: Drug uptake in anesthetized cynomolgus monkey brain medulla after 115 mins postinjection; assay type: ADME, organism-based, Macaca fascicularis; conditions: in vivo
[63] = Ratio of drug uptake in medulla to cerebellum in anesthetized cynomolgus monkey after 0.5 mins postinjection; assay type: ADME, organism-based, Macaca fascicularis; conditions: in vivo
[64] = Drug uptake in anesthetized cynomolgus monkey brain frontal lobe after 18.5 mins postinjection; assay type: ADME, organism-based, Macaca fascicularis; conditions: in vivo
[65] = Drug uptake in anesthetized cynomolgus monkey brain occipital lobe after 2.5 mins postinjection; assay type: ADME, organism-based, Macaca fascicularis; conditions: in vivo

O=C(OCCC[18F])C1C2CCC(CC1c1cccc(/C=C\Br)c1)N2 (stereo not given)
Drug uptake [1]: 4.59
Drug uptake (Midbrain [2]): 6.06
Drug uptake (Thalamus [3]): 5.06
Drug uptake (Medulla [4]): 3.64
Drug uptake (Pons [5]): 4.93
Drug uptake (Medulla [6]): 1.62
Ratio [7]: 1
Drug uptake [8]: 2.7
Drug uptake (Caudate [9]): 5.03
Drug uptake (Caudate [10]): 5.17
Ratio [11]: 1
Drug uptake [12]: 3.5
Drug uptake (Putamen [13]): 5.78
Drug uptake (Caudate [14]): 5.32
Ratio [15]: 0.7
Ratio [16]: 1.4
Ratio [17]: 1.2
Drug uptake (Caudate [18]): 4.53
Drug uptake (Thalamus [19]): 4.02
Drug uptake [20]: 3.49
Drug uptake (Putamen [21]): 5.95
Drug uptake (Caudate [22]): 4.23
Drug uptake [23]: 3.31
Drug uptake [24]: 2.89
Drug uptake [25]: 2.54
Drug uptake (Caudate [26]): 5.31
Drug uptake (Thalamus [27]): 5.02
Drug uptake [28]: 5.03
Drug uptake [29]: 2.1
Ratio [30]: 0.8
Drug uptake (Medulla [31]): 5.59
Drug uptake (Caudate [32]): 4.63
Drug uptake (Pons [33]): 4.59
Drug uptake [34]: 0.01
Ratio [35]: 1.5
Ratio [36]: 0.7
Drug uptake (Midbrain [37]): 4.91
Ratio [38]: 1.3
Drug uptake (Caudate [39]): 4.63
Drug uptake (Midbrain [40]): 6.06
Drug uptake [41]: 4.71
Drug uptake (Caudate [42]): 5.22
Ratio [43]: 1.4
Drug uptake [44]: 5.92
Drug uptake [45]: 3.2
Drug uptake [46]: 4.29
Drug uptake (Pons [47]): 4.68
Ratio [48]: 1.7
Ratio [49]: 1.6
Drug uptake (Medulla [50]): 4.42
Ratio [51]: 1.1
Drug uptake [52]: 2.57
Ratio [53]: 1.9
Drug uptake (Midbrain [54]): 0.48
Drug uptake [55]: 5.11
Drug uptake [56]: 5.43
Drug uptake (Thalamus [57]): 3.52
Drug uptake (Pons [58]): 4.67
Drug uptake [59]: 3.19
Drug uptake (Medulla [60]): 5.82
Drug uptake (Putamen [61]): 1.34
Drug uptake (Medulla [62]): 5.07
Ratio [63]: 2.4
Drug uptake [64]: 3.7
Drug uptake [65]: 1.03

From ChEMBL document CHEMBL1151757, “Synthesis, radiosynthesis, and biological evaluation of fluorine-18-labeled 2beta-carbo(fluoroalkoxy)-3beta-(3'-((Z)-2-haloethenyl)phenyl)nortropanes: candidate radioligands for in vivo imaging of the serotonin transporter with positron emission tomography” (J Med Chem, 2008)
